Source: US9409037B2, “Enhanced anti-microbial PDT” (Biolitec Pharma Marketing LTD, priority 2010, dated 2016)

Tested on: Staphylococcus aureus
Assay: Antimicrobial PDT killing of bacteria in calf serum in a flow system
Type: cell-based
Conditions: 20 μM Safranin O in 99% calf serum; 532 nm laser, fluence rate 30 mW/cm^2, continuous irradiation; three passages, flow rate 10 ml/min
Experimental: In a separate test a composition comprising Safranin O was added to calf serum (100% serum) solution containing Staphylococcus aureus ([…]), which is a common component of the micro flora of wounds, resulting in a final concentration of 20 μM Safranin O in 99% calf serum. Irradiation was delivered in a flow system corresponding to FIG. 3 B via a light fiber from a laser, Ceralas G2 (Biolitec AG, Germany) operating at 532 nm and using a fluence rate of 30 mW/cm^2.

SMILES: Cc1cc2nc3cc(C)c(N)cc3[n+](-c3ccccc3)c2cc1N.[Cl-] [Safranin O]
- percentage of killing of bacteria: about 99.9%
